Laboratory results taken from publication PMC8607231, “Generation of KS-133 as a Novel Bicyclic Peptide with a Potent and Selective VIPR2 Antagonist Activity that Counteracts Cognitive Decline in a Mouse Model of Psychiatric Disorders” (Frontiers in Pharmacology, 2021).
Where a SMILES comes first, the peptide text is derived from it. Bridges are numbered along the chain shown (N, C = ends).

Tested on: VIPR2 activation-induced phosphorylation of CREB
Experiment: Western blot of pCREB in prefrontal cortex of neonatal mice after s.c. injection
Format: in vivo, mouse
Settings: ICR mice at P12, KS-133 1 nmol/g s.c. simultaneously with Ro 25-1553 0.4 nmol/g, 1 h after injection
Protocol: For western blot analysis, ICR neonatal mice at P12 (7–10 g body weight) were subcutaneously (s.c.) injected with KS-133 (1 nmol/g) and Ro 25-1553 (0.4 nmol/g, Peptide Institute, Inc. Osaka, Japan), a selective VIPR2 agonist ([Gourlet et al., 1997]; [Harmar et al., 2012]), and adult C57BL/6J mice at 8 weeks of age (20–30 g body weight) were intranasally (i.n.) injected with KS-133 (20 nmol/mouse) and BAY 55-9837 (20 µg/mouse, Tocris Bioscience, Bristol, United Kingdom), another selective VIPR2 agonist ([Tsutsumi et al., 2002]; [Tian et al., 2019]). The dosages of these drugs were determined in a preliminary experiment using the change in phosphorylation of cAMP-response element-binding protein (CREB) as an index. Ro 25-1553 was dissolved in phosphate-buffered saline (PBS) and BAY 55-9837 was dissolved in distilled water. KS-133 was dissolved in saline with 1% dimethyl sulfoxide (DMSO; #13445-74, Nacalai Tesque, Inc., Kyoto, Japan) for s.c. injection or saline with 5% DMSO and 5 mg/ml poly-L-arginine (#P7762, Sigma-Aldrich, St. Louis, MO, United States) for i.n. injection. […]
FIGURE 4 Effects of subcutaneous (A) and intranasal (B) administration of KS-133 on VIPR2 activation-induced phosphorylation of CREB in the prefrontal cortex of mice. Phospho-CREB (pCREB), total CREB, and β-actin levels were analyzed by western blotting. […]

CC[C@H](C)[C@H](NC(=O)[C@H](CC(C)C)NC(=O)[C@@H]1CC(=O)NCCCC[C@@H]2NC(=O)[C@@H]3CCCN3C(=O)[C@H](CC(C)C)NC(=O)[C@H](Cc3ccc(O)cc3)NC(=O)[C@@H]3CCCN3C(=O)[C@@H]3CCCN3C(=O)[C@@H](NC(C)=O)CSSC[C@H](NC(=O)[C@H](CC(C)C)NC(=O)[C@H](Cc3ccc(O)cc3)NC2=O)C(=O)N1)C(N)=O [KS-133, Ac-c[Cys-Pro-Pro-Tyr-Leu-Pro-c(Lys-Tyr-Leu-Cys]-Asp)-Leu-Ile-NH2] (Ac-CPPYLPKYLCDLI-NH2; disulfide 1-10; lactam 7-11)
Effect on Ro 25-1553-induced increase in CREB phosphorylation: suppressed the Ro 25-1553-induced increase in CREB phosphorylation
